Patent US6806230B1, “Pyrimidine derivatives and herbicides containing them” (Kumiai Chemical Industry Co., Ltd., priority 1999, dated 2004)

What was measured:
Assay type in all cases: in vivo
barnyard grass (Ec) [1] = test: Test Example 3: herbicidal effects by foliage treatment in upland field; parameters: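 0-5 growth inhibition grade; 5 = over 90%; 4 = 70-90%; 3 = 50-70%; 2 = 30-50%; 1 = 10-30%; 0 = under 10%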; details: dose 100 g active ingredient per 10 ares, examined on the 14th day after treatment
Experimental: In a 80 cm^2 plastic pot, upland soil was filled, and seeds of barnyard grass (Ec) and green foxtail (Se) were sown and cultured in a green house for 2 weeks. Then, a wettable powder prepared in accordance with Formulation Example 1 was diluted with water and applied to the entire foliage from above the plants by means of a small size spray at a rate of 100 l per 10 ares so that the dose of the active ingredient would be 100 g per 10 ares. Thereafter, cultivation was carried out in a green house, and on the 14th day after the treatment, the herbicidal effects were examined in accordance with the standards of Table 44.

barnyard grass (Ec) [2] = test: Test Example 2: herbicidal effects by upland soil treatment; parameters: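 0-5 growth inhibition grade; 5 = over 90%; 4 = 70-90%; 3 = 50-70%; 2 = 30-50%; 1 = 10-30%; 0 = under 10%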; details: dose 100 g active ingredient per 10 ares, examined on the 21st day after treatment
How it was run: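 Pre-emergence test: barnyard grass and green foxtail sown in upland soil, then soil surface sprayed with wettable-powder formulation at 100 g active ingredient per 10 ares (100 l per 10 ares). Grown in greenhouse; herbicidal effect scored on a rating scale 21 days after treatment.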

barnyard grass (Eo) [3] = test: Test Example 1: herbicidal effects by flooded paddy field treatment; parameters: herbicidal effects, Eo (barnyard grass):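 0-5 growth inhibition grade; 5 = over 90%; 4 = 70-90%; 3 = 50-70%; 2 = 30-50%; 1 = 10-30%; 0 = under 10%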; details: for herbicidal effects, Eo (barnyard grass): dose 100 g active ingredient per 10 ares, examined on the 21st day after treatment, standards of Table 44;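 as to Herbicidal effect index, Eo: 0-5 growth inhibition grade; 5 = over 90%; 4 = 70-90%; 3 = 50-70%; 2 = 30-50%; 1 = 10-30%; 0 = under 10%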
How it was run: (§1)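 Dose: 100 g active ingredient per 10 ares as a diluted wettable powder dripped onto 3 cm floodwater, one day after sowing in puddled paddy soil. Scored by a standard rating scale 21 days later following greenhouse growth.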

monochoria (Mo) [4] = test: as above; parameters: herbicidal effects, Mo (monochoria):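 0-5 growth inhibition grade; 5 = over 90%; 4 = 70-90%; 3 = 50-70%; 2 = 30-50%; 1 = 10-30%; 0 = under 10%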; details: for herbicidal effects, Mo (monochoria): dose 100 g active ingredient per 10 ares, examined on the 21st day after treatment, standards of Table 44
How it was run: as §1

barnyard grass (Eo) [5] = test: Test Example 4: selectivity for a crop plant by flooded paddy field treatment; parameters: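 0-5 growth inhibition grade; 5 = over 90%; 4 = 70-90%; 3 = 50-70%; 2 = 30-50%; 1 = 10-30%; 0 = under 10%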; details: barnyard grass, dose 25 gai/10a, 21st day after treatment, index per Table 44
How it was run: (§2)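 Water-surface application in a greenhouse pot test: 25 g active ingredient per 10 ares, given as a diluted wettable powder one day after flooding, with visual rating of herbicidal effect three weeks post-treatment.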

rice (Or) = test: as above; parameters: scale not given here; details: rice transplanted at second leaf stage, dose 25 gai/10a, 21st day after treatment, index per Table 44
How it was run: as §2

monochoria (Mo) [6] = test: as above; parameters: scale not given here; details: monochoria, dose 25 gai/10a, 21st day after treatment, index per Table 44
How it was run: as §2

[7] = dose 100 gai/10a, examined on 21st day after treatment, index 0-5 per Table 44
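For Herbicidal effect index, Mo in this document: 0-5 growth inhibition grade; 5 = over 90%; 4 = 70-90%; 3 = 50-70%; 2 = 30-50%; 1 = 10-30%; 0 = under 10%.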

Compound	Ec (herbicidal effects, index) (barnyard grass (Ec) [1])	Ec (herbicidal effects, index) (barnyard grass (Ec) [2])	herbicidal effects, Eo (barnyard grass) (barnyard grass (Eo) [3])	herbicidal effects, Mo (monochoria) (monochoria (Mo) [4])	other results
CC(C(=O)N(C)C(c1cncnc1C#N)C(C)C)c1ccc(Cl)cc1 (mixture of isomers) [1-508]	4	5	–	–	–
COCC(c1cncnc1C(C)C)N(C)C(=O)C(C)c1ccc(Cl)cc1 (mixture of isomers) [1-586]	5	5	5	5	–
CCC(C)C(c1cncnc1C(F)(F)F)N(C)C(=O)Cc1cccs1 (mixture of isomers) [2-11]	5	5	5	5	–
CCC(C)C(c1cncnc1C(F)(F)F)N(C)C(=O)Cc1ccsc1 (mixture of isomers) [2-12]	5	5	5	5	–
Cc1ccc(C(C)C(=O)N(C)C(c2cncnc2C(F)(F)F)C(C)C)s1 (mixture of isomers) [2-60]	4	5	5	5	–
C#CCN(C(=O)Cc1ccc(F)cc1)C(c1cncnc1CCC)C(C)C (racemic) [1-617]	4	5	–	–	–
C#CCN(C(=O)Cc1ccc(C)cc1)C(c1cncnc1CCC)C(C)C (racemic) [1-619]	4	5	–	–	–
C#CCN(C(=O)Cc1ccc(F)cc1)C(c1cncnc1C(C)C)C(C)C (racemic) [1-622]	4	4	–	–	–
CCc1ncncc1C(C(C)C)N(C)C(=O)Oc1ccc(Cl)cc1 (racemic) [1-642]	4	4	–	–	–
CCOc1ncncc1C(C(C)C)N(C)C(=O)Cc1ccc(Cl)cc1 (racemic) [1-661]	5	–	–	–	–
C#CCN(C(=O)Cc1ccsc1)C(c1cncnc1C(C)C)C(C)C (racemic) [2-79]	4	5	–	–	–
CC(C)C(c1cncnc1C(F)(F)F)N(C)S(=O)(=O)c1ccc(Cl)cc1 (racemic) [4-1]	–	5	5	5	Eo (herbicidal effect index) (barnyard grass (Eo) [5]): 5; Or (herbicidal effect index on crop) (rice (Or)): 1; Mo (herbicidal effect index) (monochoria (Mo) [6]): 5
O=C(Cc1ccccc1)NC(c1cncnc1C(F)(F)Cl)C1CC1 (racemic) [Compound 1-1]	4	–	–	–	–
CCCC(c1cncnc1C(F)(F)F)N(C)C(=O)Cc1ccccc1 (racemic) [Compound 1-111]	4	–	–	–	Herbicidal effect index, Eo (barnyard grass (Eo) [3]; [7]): 5; Herbicidal effect index, Mo (monochoria (Mo) [4]; [7]): 4
CC(C)c1ncncc1C(C(C)C)N(C)C(=O)Cc1ccc(F)cc1 (racemic) [Compound 1-129]	5	–	5	5	–
CN(C(=O)Cc1ccc(Cl)cc1F)C(c1ccccc1)c1cncnc1C(F)(F)F (racemic) [Compound 1-250]	–	4	5	5	Eo (herbicidal effect index) (barnyard grass (Eo) [5]): 5; Or (herbicidal effect index on crop) (rice (Or)): 1; Mo (herbicidal effect index) (monochoria (Mo) [6]): 5
